Source: ChEMBL document CHEMBL1201862, “PubChem BioAssay data set” (2004)
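Following 48 hours of exposure in 96-well plates, responses at five concentrations were used to interpolate endpoints linearly. GI50 is the concentration that inhibits growth by half.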 The source made the active and inactive calls. Rule as the data show it: active = GI50 up to about 1.1 µM and inactive = higher.

Assays:
Assay in all cases: inhibition of tumour cell growth, NCI panel, 48 h
[1] = system: NCI-H460
[2] = system: HL-60
[3] = system: DU-145
[4] = system: A498
[5] = system: BT-549
[6] = system: HT-29
[7] = system: HCT-116
[8] = system: K562
[9] = system: RXF 393
[10] = system: MDA-MB-231
[11] = system: HCT-15
[12] = system: KM12
[13] = system: SF-539
[14] = system: SN12C
[15] = system: SF-268
[16] = system: Malme-3M
[17] = system: OVCAR-4
[18] = system: NCI-H226
[19] = system: NCI-H522
[20] = system: UO-31

| Compound | GI50 [1] | GI50 [2] | GI50 [3] | GI50 [4] | GI50 [5] | GI50 [6] | GI50 [7] | GI50 [8] | GI50 [9] | GI50 [10] | GI50 [11] [µM] | GI50 [12] | GI50 [13] | GI50 [14] | GI50 [15] | GI50 [16] | GI50 [17] | GI50 [18] | GI50 [19] | GI50 [20] |
| --- | --- | --- | --- | --- | --- | --- | --- | --- | --- | --- | --- | --- | --- | --- | --- | --- | --- | --- | --- | --- |
| O=C(O)CC1NC(/C(=C/c2ccccc2)NC(=O)c2ccccc2)OC1=O (stereo not given) | 22.2 µM (inactive) | 11.6 µM (inactive) | 52.4 µM (inactive) | > 100 µM (inactive) | 19.9 µM (inactive) | 29.8 µM (inactive) | 18.5 µM (inactive) | 21.3 µM (inactive) | 34.5 µM (inactive) | 27.4 µM (inactive) | 31 | 17.4 µM (inactive) | 21 µM (inactive) | 43.3 µM (inactive) | 36.3 µM (inactive) | 36.9 µM (inactive) | 51.1 µM (inactive) | 21.8 µM (inactive) | 16.5 µM (inactive) | 23.8 µM (inactive) |
| O=[N+]([O-])c1ccc2c(/N=N/c3ccc4ccccc4c3O)c(O)cc(S(=O)(=O)O)c2c1 | 38.5 µM (inactive) | 9.06 µM (inactive) | 18.7 µM (inactive) | 35.3 µM (inactive) | 25.7 µM (inactive) | 44.5 µM (inactive) | 19.5 µM (inactive) | 20.6 µM (inactive) | 17.9 µM (inactive) | 35 µM (inactive) | 9.93 | 31.8 µM (inactive) | 11.4 µM (inactive) | 38.5 µM (inactive) | 8.89 µM (inactive) | 18.3 µM (inactive) | 9.64 µM (inactive) | 4.66 µM (inactive) | 7.71 µM (inactive) | 5.78 µM (inactive) |
| COc1cc(C(=O)c2cocc2C(=O)c2ccc3c(c2)OCO3)cc(OC)c1OC | 0.658 µM (active) | 0.0946 µM (active) | 1.17 µM (inactive) | 4.05 µM (inactive) | 0.149 µM (active) | 0.244 µM (active) | 0.333 µM (active) | 0.151 µM (active) | 0.67 µM (active) | 2.65 µM (inactive) | 0.347 | 0.254 µM (active) | 0.399 µM (active) | 1.49 µM (inactive) | 0.802 µM (active) | 0.312 µM (active) | 18.5 µM (inactive) | 1.8 µM (inactive) | 0.268 µM (active) | 1.58 µM (inactive) |
| Sc1ncc2[nH]nnc2n1 | > 100 µM (inactive) | > 100 µM (inactive) | > 100 µM (inactive) | > 100 µM (inactive) | > 100 µM (inactive) | > 100 µM (inactive) | > 100 µM (inactive) | > 100 µM (inactive) | > 100 µM (inactive) | > 100 µM (inactive) | > 100 | > 100 µM (inactive) | > 100 µM (inactive) | > 100 µM (inactive) | > 100 µM (inactive) | > 100 µM (inactive) | > 100 µM (inactive) | > 100 µM (inactive) | > 100 µM (inactive) | > 100 µM (inactive) |
| COc1ccc2nc3ccc(OC)cc3c([S+]([O-])Cc3ccc([N+](=O)[O-])cc3)c2c1 (stereo not given) | 23.3 µM (inactive) | 1.75 µM (inactive) | 2.58 µM (inactive) | 17.3 µM (inactive) | 18.7 µM (inactive) | 2.58 µM (inactive) | 1.69 µM (inactive) | 3.56 µM (inactive) | 5.04 µM (inactive) | 15.7 µM (inactive) | 3.19 | 18.4 µM (inactive) | 2.81 µM (inactive) | 3.65 µM (inactive) | 22.1 µM (inactive) | 2.37 µM (inactive) | 9.51 µM (inactive) | 22.9 µM (inactive) | 1.73 µM (inactive) | 6.44 µM (inactive) |
| O/N=C(\CC(O)(C(F)(F)F)C(F)(F)F)c1cccs1 | > 10 µM (inactive) | > 10 µM (inactive) | > 10 µM (inactive) | > 10 µM (inactive) | > 10 µM (inactive) | > 10 µM (inactive) | > 10 µM (inactive) | > 10 µM (inactive) | > 10 µM (inactive) | > 10 µM (inactive) | > 10 | > 10 µM (inactive) | > 10 µM (inactive) | > 10 µM (inactive) | > 10 µM (inactive) | > 10 µM (inactive) | > 10 µM (inactive) | > 10 µM (inactive) | > 10 µM (inactive) | > 10 µM (inactive) |
| COC(=O)c1cc2c(n1S(=O)(=O)c1ccc(C)cc1)C(=O)C(=O)c1[nH]cc(C(=O)OCc3ccccc3)c1-2 | 1.37 µM (inactive) | 0.0289 µM (active) | 0.138 µM (active) | 1.65 µM (inactive) | 0.183 µM (active) | 0.273 µM (active) | 0.0718 µM (active) | 0.0439 µM (active) | 0.0973 µM (active) | 0.0274 µM (active) | 0.0673 | 0.231 µM (active) | 0.136 µM (active) | 0.08 µM (active) | 0.221 µM (active) | 0.0321 µM (active) | 0.209 µM (active) | 0.199 µM (active) | 0.094 µM (active) | 0.211 µM (active) |
| Cc1ccccc1C(=O)N1CCc2c([nH]c3ccccc23)C1 | 21.7 µM (inactive) | 17.5 µM (inactive) | 25.6 µM (inactive) | 21.5 µM (inactive) | 18.7 µM (inactive) | 18.8 µM (inactive) | 17.7 µM (inactive) | 21.4 µM (inactive) | 18.6 µM (inactive) | 12.7 µM (inactive) | 21.3 | 25.9 µM (inactive) | 21.5 µM (inactive) | 17.2 µM (inactive) | 35.6 µM (inactive) | 24.8 µM (inactive) | 22.6 µM (inactive) | 21.8 µM (inactive) | 19.1 µM (inactive) | 31.2 µM (inactive) |
